The test system of assay [1] is DREADDs (hM3D(Gq)) expressing VTA dopaminergic neurons. The experiment in a line: C-fos staining of VTA neurons after CNO injection. It counts as in vivo, mice. To be noted: CNO 2.5 mg/kg, 90 min after injection. How it is done:
Mice were anesthetized using a ketamine/xylazine mixture (ketamine 80 mg/kg; xylazine 15-20 mg/kg) diluted in sterile saline solution (NaCl 0.9%), before being fixed in the stereotactic frame (Stoelting, IL, US). The AAV8 virus, purchased from the vector core at the University of North Carolina, was used to induce Cre-dependent DREADD expression (AAV8-hSyn-DIO-hM3D(Gq)-mCherry), by injection of 0.7 μl into the right VTA region (anterior-posterior −3.2 mm; media-lateral 0.48 mm; dorsal-ventral 4.7 mm (mouse coordinates)). […] 30 days post surgery passed in order to assure the expression of DREADDs. […]
Validation of the virus injection site and evaluation of the DREADDs expression were performed by immunohistochemistry. […] The tissues were stained for TH with mouse anti-TH (1:200; Millipore) and the proportion of the DREADDs expressing cells (mCherry+) out of the total TH+ in the VTA was evaluated (1800 cells). […] The proportion of the c-fos+ cell nuclei from the total number of DREADDs-expressing cells was calculated. […] The quantification of double-positive cells was performed using Imaris Software.
Efficiency of the viral infection in the dopaminergic (TH+) VTA neurons was 58±4% (FIG. 6B). […] Neuronal activation was determined by C-fos staining, an immediate early activation marker. […]

The next assay relates to E. coli. Briefly: In-vitro E. coli killing assay with spleen monocytes/macrophages. Format: cell-based, mice. The note with it: monocytes/macrophages from spleens 24 h after CNO; VTA-activated vs control; intact SNS. How it is done:
To evaluate the anti-bacterial efficiency of the spleen monocytes, an in-vitro killing assay was performed. Splenocytes from VTA-activated and control mice were extracted 24 hour after IP injection of CNO. Splenocytes underwent a monocyte enrichment negative selection procedure using the EasySep mouse monocyte enrichment kit (Stem-Cells Technologies, Vancouver, Canada). Enriched monocytes co-cultured with E. coli bacteria at a 12:1 ratio, in RPMI medium containing 10% foetal bovine serum, and incubated at 37° C. for 4 h. Monocytes were then lysed by adding 0.1% Triton X-100 (Sigma-Aldrich, US), and the lysates were diluted ×1000 in PBS. The diluted media were plated onto agar petri dishes, which were then incubated overnight at 37° C. Twelve hours later, the number of remaining bacteria colonies was counted.
To test for functional changes in immune activity following VTA activation, monocytes/macrophages were assayed (the most profound changes in the CyTOF screen). Due to the increase in CD206 levels on these cells, their phagocytic capacity was examined. Cd11b+, Ly6G-cells were isolated from the spleens of both VTA-activated and control mice 24 h following CNO injection. Cells were cultured with E. coli for four hours and then lysed.
The remaining media was plated on agar plates and counted the remaining bacteria colonies. […]

Another assay concerns VTA dopaminergic neurons. The experiment in a line: Conditional place preference (CPP) paradigm. Format: in vivo, mice. The note with it: CNO 2.5 mg/kg. How it is done: All behavioral tests were conducted during the same circadian period. The conditional place preference (CPP) test was performed in a rectangular cage with two chambers (25 cm×25 cm each), with a corridor (5 cm×5 cm) connecting the two chambers. The chambers differed in their visual cues and were designed so that mice will have no bias for a particular chamber. The CPP paradigm consisted of four sessions over four days and was conducted 30 days after the viral stereotactic injection. On day 1, individual mice were placed in the connecting corridor (in the same direction) and allowed to freely explore the entire apparatus for 15 minutes (pre-test). On day 2, mice were IP injected with CNO (2.5 mg/kg, Sigma-Aldrich) diluted in sterile saline in order to activate the VTA dopaminergic neurons and then the mice were confined to one of the chambers for 30 min. On day 3, mice were confined to the other chamber for 30 min, 10 min after an injection of sterile saline. On day 4, mice were placed in the center chamber and allowed to freely explore the entire apparatus for 15 minutes (post-test). To calculate the level of preference, the relative time (%) the mouse spent during post-test in the conditioned chamber (the chamber where it received the CNO injection) was divided by the relative time (%) the mouse spent in this chamber during the pre-test (post/pre ratio). Of note, mice in both groups were injected with CNO to control for the potential effects of CNO. The analysis was performed automatically using EthoVision software.
Behavioral analysis (conditioned place preference; CPP): Three groups of mice were used in this experiment: mice injected with AAV virus encoding the hM3D (Gq), hM4D (Gi) or control carrying only mCherry. On day 1 the mice were given a chance to explore the apparatus for 5 minutes. […] At this stage the mice were only allowed access to one compartment of the apparatus and remains in the compartment for 30 minutes. Day 3: Mice were confounded to the other compartment. […] Time spent in each compartment was measured by motion detecting software (EthoVision). […]

The subject of assay [2] is solid melanoma (B16) tumor and Lewis lung carcinoma (LLC). Briefly: Tumor growth after VTA dopaminergic neuron activation. Format: in vivo, mice. How it is done:
For the expression of DREADDs, injected Cre-dependent adeno-associated virus (AAV) vector expressing DREADDs fused with red fluorescent protein mCherry, was injected into the VTA of tyrosine hydroxylase (TH)-Cre transgenic mice.
Then the mice were challenged with 500×10^3 LLC cells (Lewis Lung carcinoma Cells) or 200×10^3 B16 melanoma tumor cells (gently injected subcutaneously into the middle right flank of each animal).
28 days from the tumor cells injection a group of the tumor-bearing animals were euthanized to dissect the tumor tissue and check for metastasis (FIG. 12). The spleen bone marrow and tumors were isolated to characterize the changes in immune cells. The CyTOF was used to analyze the immune system as well as FACS analysis.

“Also recorded” adds a separate entry of the source.

Turning to `C[N+]1([O-])CCN(C2=Nc3cc(Cl)ccc3Nc3ccccc32)CC1` [CNO, clozapine-N-oxide], in assay [1] (VTA-activated (hM3D(Gq)) mice), the “C-fos expression in DREADDs-infected cells” value is 42±0.5%. Moreover, the “C-fos expression in virus infected cells” value in assay [1] (control mice (sham mCherry virus without DREADDs)) worked out at 3±1%. In addition, the “number of remaining E. coli colonies” value in the assay with E. coli is “significant decrease”. Further, the “preference for conditioned chamber (CPP)” value with VTA dopaminergic neurons (Gi (hM4D) mice) is recorded as “avoided the conditioned chamber”; with VTA dopaminergic neurons (Gq (hM3D, VTA-activated) mice), “exhibited a preference for the conditioned chamber; also recorded: increased preference to the conditioned chamber; also recorded: strong preference towards the chamber in which they were injected with CNO”; with VTA dopaminergic neurons (control mice (mCherry only virus)) it was “no such bias; also recorded: did not show a clear preference to any single chamber”. Also, the “tumor weight / size (B16 melanoma)” value in assay [2] (CNO daily, two sessions of three days, Gq group vs control) is listed as “Reduced tumor size”. The “reduction in tumor size” value in assay [2] (VTA-activated vs control mice, B16 melanoma and LLC) is “over 40%”. For the same molecule, the “abundance of CD11b+Gr1+ MDSCs” value in assay [2] (VTA-activated vs control mice, spleen, bone marrow and tumor) is given as “significant reduction in the abundance; also recorded: reduced abundance of MDSCs”.

Source of the values: patent US12201628B2, “Neuronal modulation” (priority 2013, dated 2025).
